Experimental data as given in patent US20180348231A1, “LIGAND INDUCIBLE POLYPEPTIDE COUPLER SYSTEM” (Intrexon Corporation, priority 2015, published 2018).
Entries after “also recorded” stand apart in the source; their conditions may differ.

T1: Cluc_RxR
T1 construct: Expressed in transfected 293T cells
T1 chain: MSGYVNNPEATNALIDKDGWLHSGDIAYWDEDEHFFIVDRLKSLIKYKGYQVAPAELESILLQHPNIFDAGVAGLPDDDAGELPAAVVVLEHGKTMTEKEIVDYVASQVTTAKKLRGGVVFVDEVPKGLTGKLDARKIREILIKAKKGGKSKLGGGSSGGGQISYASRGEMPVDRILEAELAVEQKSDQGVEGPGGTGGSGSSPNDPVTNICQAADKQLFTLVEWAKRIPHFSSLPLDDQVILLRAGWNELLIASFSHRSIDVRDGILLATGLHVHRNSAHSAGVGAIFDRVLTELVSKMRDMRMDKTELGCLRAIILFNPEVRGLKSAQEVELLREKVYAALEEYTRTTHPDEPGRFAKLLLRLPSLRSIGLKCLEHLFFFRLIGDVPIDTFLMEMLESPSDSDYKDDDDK


Experiments:
[1] = test system: split fLuc fused to EcR and RXR domains; assay: Split firefly luciferase (fLuc) bioluminescence assay, EcR-RXR ligand inducible polypeptide coupler; format: cell-based
Experimental: (§1) HEK293 cells were transfected with the split fLuc fused to EcR and RXR domains as follows:
(§2) A day before transfection, 10,000 cells (293T cells) were plated into each well of a 96 well plate containing 100 μl of growth medium (Dulbecco's Modified Eagle's Medium with 10% Fetal Bovine Serum) without antibiotics. Plasmids in pairs, RxR Nluc with Cluc EcR and EcR_ Nluc with Cluc_ RxR (see FIG. 8; amino acid sequences for the constructs depicted in FIG. 8 are provided as SEQ ID NOs: 87-92, respectively. SEQ ID NOs: 91 and 92 correspond to the EcR and RXR amino sequences, respectively, employed in the constructs of FIG. 8), were transfected with Lipofectamine® 2000, according to manufacturer's specifications. Briefly, individual plasmid DNA (0.2 μg) and 0.5 μl of Lipofectamine 2000® was diluted in 25.0 μl of OptiMEM® I Reduced Serum Medium and incubated for 5 minutes at room temperature, volumes were doubled for co-transfections. Diluted plasmid DNA was combined with diluted Lipofectamine® 2000 and incubated for 20 minutes at room temperature. 50 μl of the DNA/Lipofectamine® 2000 complex was added to each well of the 96 well plate. Cells were incubated at 37° C. in a 5% CO2 incubator for 24 hours, prior to addition of the activating ligand Veledimex. […]

[2] = target: T2, STAT1 (Homo sapiens, UniProt P42224); assay: Split fLuc bioluminescence assay, STAT1 positive control; format: cell-based; conditions: Ligand − and +, FIG. 7
T2 construct: expressed in transfected cells; host or cells: HEK293 / 293T cells
T2 sequence (P42224 with tags, fused parts or gaps): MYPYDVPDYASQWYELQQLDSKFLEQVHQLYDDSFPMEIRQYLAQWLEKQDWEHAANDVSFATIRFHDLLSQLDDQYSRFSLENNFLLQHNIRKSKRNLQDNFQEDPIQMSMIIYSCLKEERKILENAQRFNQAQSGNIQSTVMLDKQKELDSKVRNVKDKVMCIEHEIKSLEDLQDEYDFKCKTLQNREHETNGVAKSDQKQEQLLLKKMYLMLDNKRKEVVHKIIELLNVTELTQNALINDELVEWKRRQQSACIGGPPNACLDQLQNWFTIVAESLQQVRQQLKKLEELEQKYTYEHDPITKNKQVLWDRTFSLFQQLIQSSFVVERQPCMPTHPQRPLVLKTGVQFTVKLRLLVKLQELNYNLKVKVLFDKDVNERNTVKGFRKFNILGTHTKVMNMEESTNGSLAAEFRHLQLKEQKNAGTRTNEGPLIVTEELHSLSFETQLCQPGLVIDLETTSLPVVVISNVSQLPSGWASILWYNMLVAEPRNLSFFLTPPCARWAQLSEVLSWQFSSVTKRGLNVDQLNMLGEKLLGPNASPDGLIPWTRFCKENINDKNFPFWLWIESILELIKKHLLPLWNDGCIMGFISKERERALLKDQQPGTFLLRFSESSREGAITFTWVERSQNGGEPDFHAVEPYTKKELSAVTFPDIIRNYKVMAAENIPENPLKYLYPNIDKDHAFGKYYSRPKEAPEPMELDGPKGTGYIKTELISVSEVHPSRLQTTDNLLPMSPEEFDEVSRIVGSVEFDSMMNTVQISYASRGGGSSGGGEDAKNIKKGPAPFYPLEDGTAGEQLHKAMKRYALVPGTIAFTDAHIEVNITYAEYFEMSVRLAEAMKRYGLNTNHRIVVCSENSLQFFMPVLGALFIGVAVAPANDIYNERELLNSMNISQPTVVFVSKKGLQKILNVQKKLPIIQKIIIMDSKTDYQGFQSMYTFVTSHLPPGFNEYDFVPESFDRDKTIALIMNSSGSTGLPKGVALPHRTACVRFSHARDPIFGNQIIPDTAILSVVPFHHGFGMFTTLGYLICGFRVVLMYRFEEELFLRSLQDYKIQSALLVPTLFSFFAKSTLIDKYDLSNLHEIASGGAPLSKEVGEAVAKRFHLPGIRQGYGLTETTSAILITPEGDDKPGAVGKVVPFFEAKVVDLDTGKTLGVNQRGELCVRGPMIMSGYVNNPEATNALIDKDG
T2 sequence (P42224 with tags, fused parts or gaps): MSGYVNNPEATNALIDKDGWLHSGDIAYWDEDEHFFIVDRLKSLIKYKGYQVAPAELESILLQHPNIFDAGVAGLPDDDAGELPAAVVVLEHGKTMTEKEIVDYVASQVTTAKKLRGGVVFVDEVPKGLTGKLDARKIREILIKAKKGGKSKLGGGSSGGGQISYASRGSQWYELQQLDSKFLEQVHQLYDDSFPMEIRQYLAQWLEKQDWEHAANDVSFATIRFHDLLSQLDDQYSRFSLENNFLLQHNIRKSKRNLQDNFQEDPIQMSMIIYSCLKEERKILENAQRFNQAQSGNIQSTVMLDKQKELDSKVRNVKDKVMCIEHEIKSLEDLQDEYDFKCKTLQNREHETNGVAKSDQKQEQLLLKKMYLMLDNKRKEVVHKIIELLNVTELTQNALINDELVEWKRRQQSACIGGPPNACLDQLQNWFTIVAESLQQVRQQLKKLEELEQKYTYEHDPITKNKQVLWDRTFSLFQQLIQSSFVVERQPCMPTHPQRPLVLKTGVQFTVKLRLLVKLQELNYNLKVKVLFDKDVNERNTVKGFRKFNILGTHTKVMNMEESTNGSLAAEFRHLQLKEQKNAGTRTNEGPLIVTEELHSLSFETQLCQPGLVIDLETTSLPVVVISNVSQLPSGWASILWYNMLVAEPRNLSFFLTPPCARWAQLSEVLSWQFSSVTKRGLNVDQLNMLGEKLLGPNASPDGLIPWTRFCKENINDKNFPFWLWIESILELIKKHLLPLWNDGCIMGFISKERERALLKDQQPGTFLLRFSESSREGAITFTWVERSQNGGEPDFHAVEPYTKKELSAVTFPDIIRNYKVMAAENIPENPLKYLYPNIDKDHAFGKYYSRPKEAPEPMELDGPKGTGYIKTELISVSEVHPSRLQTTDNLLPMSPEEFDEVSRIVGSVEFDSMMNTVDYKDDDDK

[3] = test system: 293T cells; assay: Bioluminescence assay, mock (no vector), activating ligand alone; format: cell-based; conditions: negative control, no split fLuc vectors; FIG. 7
Experimental: A day before transfection, 10,000 cells (293T cells) were plated into each well of a 96 well plate containing 100 μl of growth medium (Dulbecco's Modified Eagle's Medium with 10% Fetal Bovine Serum) without antibiotics. Plasmids in pairs, RxR Nluc with Cluc EcR and EcR_ Nluc with Cluc_ RxR (see FIG. 8; amino acid sequences for the constructs depicted in FIG. 8 are provided as SEQ ID NOs: 87-92, respectively. SEQ ID NOs: 91 and 92 correspond to the EcR and RXR amino sequences, respectively, employed in the constructs of FIG. 8), were transfected with Lipofectamine® 2000, according to manufacturer's specifications. Briefly, individual plasmid DNA (0.2 μg) and 0.5 μl of Lipofectamine 2000® was diluted in 25.0 μl of OptiMEM® I Reduced Serum Medium and incubated for 5 minutes at room temperature, volumes were doubled for co-transfections. Diluted plasmid DNA was combined with diluted Lipofectamine® 2000 and incubated for 20 minutes at room temperature. 50 μl of the DNA/Lipofectamine® 2000 complex was added to each well of the 96 well plate. Cells were incubated at 37° C. in a 5% CO2 incubator for 24 hours, prior to addition of the activating ligand Veledimex.
Twenty four hours (24hrs) post-transfection, cell culture media from each well of the 96-well plate was replaced with 100 nM Veledimex activating ligand and Dimethyl sulfoxide-DMSO (negative control). […]

[4] = test system: EcR_Nluc+Cluc_EcR; assay: Split fLuc bioluminescence assay, EcR-EcR homodimerization; format: cell-based; conditions: upon ligand addition, FIGS. 11 and 12
Experimental: (§3) Experiments were performed to test if nuclear receptor domains (i.e., EcR and RxR polypeptides) could be induced to homodimerize upon addition of ligand (FIGS. 11 and 12). STAT1 was used as control polypeptide since it is reported to self dimerize independent of ligand addition. Abbreviations in the figures are:
“EcR-EcR” means “EcR_Nluc+Cluc_EcR” which is a luciferase polypeptide split into two halves, such that an EcR polypeptide is fused to the N-terminus of a luciferase polypeptide fragment (EcR_Nluc) and another fragment of luciferase has an EcR polypeptide fused to its C-terminal end (Cluc_EcR); thereby activating luciferase (generation of bioluminescence) upon EcR homodimerization;

[5] = target: T3, RxR domains (Homo sapiens, UniProt P28702, A451V/A495S/C475T/D450E/E481D/K452R/K476R/K478T/K511R/N456S/P457A/Q477T/Q482E/Q483P/S455K/S458Q/S470A/T473E/T516V/V462L/Y479H); assay: Split fLuc bioluminescence assay, RxR homodimerization; format: cell-based; conditions: FIGS. 11 and 12
T3 construct: expressed in transfected cells
Experimental: as §3
“RxR” is Retinoid X receptor;

[6] = target: T1, Cluc_RxR; assay: split firefly luciferase complementation, with and without Veledimex
Experimental: as §1
as §2, with “CO₂” for “CO2”

binding result [6] | Molecule | RxR-EcR heterodimerization (bioluminescence) ([1]; EcR_Nluc+Cluc_RXR, Example 2, FIGS. 11 and 12) | fLuc signal (bioluminescence) ([1]; cells transfected with split fLuc fused to EcR and RXR, 100 nM Veledimex, 6 hours after addition, FIG. 7, listed as activating ligand) | Signal of the positive control (STAT1 split fLuc) [2] | fLuc reading, activating ligand alone [3] | EcR domain homodimerization (bioluminescence) [4] | RxR domain homodimerization (bioluminescence) [5]
– | CCC[C@@H](N(NC(=O)c1cccc(OC)c1CC)C(=O)c1cc(C)cc(C)c1)C(C)(C)C [Veledimex] | strongest signal (bioluminescence) was observed | fLuc signal was detected; also recorded: a clear fLuc signal is generated; also recorded: drives split fLuc signal only in the presence of activating ligand | unaffected | only background readings | statistically significant homodimerization of EcR domains | homodimerize independent of ligand
binds | RxR Nluc (other, also called R×R Nluc; RXR-fLuc) MDYKDDDDKEMPVDRILEAELAVEQKSDQGVEGPGGTGGSGSSPNDPVTNICQAADKQLFTLVEWAKRIPHFSSLPLDDQVILLRAGWNELLIASFSHRSIDVRDGILLATGLHVHRNSAHSAGVGAIFDRVLTELVSKMRDMRMDKTELGCLRAIILFNPEVRGLKSAQEVELLREKVYAALEEYTRTTHPDEPGRFAKLLLRLPSLRSIGLKCLEHLFFFRLIGDVPIDTFLMEMLESPSDSQISYASRGGGSSGGGEDAKNIKKGPAPFYPLEDGTAGEQLHKAMKRYALVPGTIAFTDAHIEVNITYAEYFEMSVRLAEAMKRYGLNTNHRIVVCSENSLQFFMPVLGALFIGVAVAPANDIYNERELLNSMNISQPTVVFVSKKGLQKILNVQKKLPIIQKIIIMDSKTDYQGFQSMYTFVTSHLPPGFNEYDFVPESFDRDKTIALIMNSSGSTGLPKGVALPHRTACVRFSHARDPIFGNQIIPDTAILSVVPFHHGFGMFTTLGYLICGFRVVLMYRFEEELFLRSLQDYKIQSALLVPTLFSFFAKSTLIDKYDLSNLHEIASGGAPLSKEVGEAVAKRFHLPGIRQGYGLTETTSAILITPEGDDKPGAVGKVVPFFEAKVVDLDTGKTLGVNQRGELCVRGPMIMSGYVNNPEATNALIDKDG | – | – | – | – | – | –
